{"source": "patent US8557737B2", "about": "“Methods of altering poppy characteristics” (priority 2005, dated 2013)", "tested_on": "poppy crops", "assay": "Example 19: field trial, sulfosulfuron, thifensulfuron-methyl and metsulfuron-methyl, morphine crop", "format": "in vivo, Papaver somniferum", "details": "applied at M-LRU and LRU-BE; for PLANT HEIGHT: measured some 10 weeks after last application", "method": "All trials were conducted on poppy crops. Seed was treated with Thiram (5.6 g of Thiram 800/kg seed) and Apron (4 g/kg) and sown at a rate of approximately 750 g/ha. Fertilisers were applied at sowing. Most commonly, either 50:50 lime:superphosphate/triple superphosphate at 125 kg/ha, or lime:superphosphate at 250 kg/ha, were mixed with seed and drilled at a depth of 15 mm. In the same operation, NPK (nitrogen:phosphorus:potassium), at various rates, was banded 75 mm below the seed, unless otherwise stated. All crops were subjected to herbicide sprays for weed control, fungicide sprays for disease control, insecticide sprays if appropriate and were irrigated as required.\nAll spray applications were made with a precision sprayer, using Silvan Lurmark flat-fan, low-drift nozzles (LD110-0015). Spray equipment was calibrated to deliver 153 L water/ha.\nAt harvest, a 2 m×4 m quadrat was placed in each plot (3 m×6 m, unless otherwise stated) and capsules hand-picked from this area. Capsules were broken up, seed and capsule material separated and weighed. Capsule moisture readings were taken with a moisture meter. Alkaloid yield data were calculated on Pesticide Research Manager (version 5 for Windows) using the formulae below. Briefly, capsule weight was adjusted for moisture to a dry weight, 5% of seed weight was added to this (this amount of capsule material regularly occurs in seed samples after processing) to give a capsule weight per plot. Seed weight was adjusted to 95% of crude weight. Straw weights were determined by multiplying dry capsule weight by 1.3 (estimated amount of stem material in a commercial harvest) and adjusted to 11% moisture. When Lontrel was applied to crops exact capsule and seed weight data were entered. Analyses of variance and a Multiple Range Test were performed on data using Pesticide Research Manager.\nTrial to evaluate applications of sulfosulfuron, thifensulfuron-methyl and metsulfuron-methyl, in a morphine crop. Treatment sprays were applied to crop at mid-late run-up and late-run-up/bud-emergence, respectively. Plant heights were measured some 10 weeks after the last application. Lodging was assessed at capsule harvest.", "key": {"[1]": {"details": "1.35 G/HA + ACTIVATOR .125 % V/V"}, "[2]": {"details": "4.5 G/HA + ACTIVATOR .125 % V/V"}, "[3]": {"details": "450 MG/HA + ACTIVATOR .125 % V/V"}}}
{"smiles": "CCS(=O)(=O)c1nc2ccccn2c1S(=O)(=O)NC(=O)Nc1nc(OC)cc(OC)n1", "note": "[Compound 5, sulfosulfuron]", "values": [{"measurement": "CAPSULE/SEED RATIO", "setting": "60 MG/HA + SWIFT 1 % V/V", "value": 2.324}, {"measurement": "CROP WEIGHT", "setting": "60 MG/HA + SWIFT 1 % V/V", "value": ".96 t/ha"}, {"measurement": "MORPHINE", "setting": "60 MG/HA + SWIFT 1 % V/V", "value": 19.19, "unit": "kg/ha"}, {"measurement": "SEED", "setting": "60 MG/HA + SWIFT 1 % V/V", "value": 220, "unit": "kg/ha"}, {"measurement": "STRAW", "setting": "60 MG/HA + SWIFT 1 % V/V", "value": 738, "unit": "kg/ha"}, {"measurement": "STRAW MORPHINE %", "setting": "60 MG/HA + SWIFT 1 % V/V", "value": 2.6, "unit": "%"}, {"measurement": "PLANT HEIGHT", "setting": "60 MG/HA + SWIFT 1 % V/V", "value": 73, "unit": "cm"}, {"measurement": "CAPSULE/SEED RATIO", "setting": "180 MG/HA + SWIFT 1 % V/V", "value": 2.898}, {"measurement": "CROP WEIGHT", "setting": "180 MG/HA + SWIFT 1 % V/V", "value": 1.15, "unit": "t/ha"}, {"measurement": "MORPHINE", "setting": "180 MG/HA + SWIFT 1 % V/V", "value": 22.90, "unit": "kg/ha"}, {"measurement": "SEED", "setting": "180 MG/HA + SWIFT 1 % V/V", "value": 223, "unit": "kg/ha"}, {"measurement": "STRAW", "setting": "180 MG/HA + SWIFT 1 % V/V", "value": 931, "unit": "kg/ha"}, {"measurement": "STRAW MORPHINE %", "setting": "180 MG/HA + SWIFT 1 % V/V", "value": 2.46, "unit": "%"}, {"measurement": "PLANT HEIGHT", "setting": "180 MG/HA + SWIFT 1 % V/V", "value": 75, "unit": "cm"}, {"measurement": "CAPSULE/SEED RATIO", "setting": "600 MG/HA + SWIFT 1 % V/V", "value": 4.564}, {"measurement": "CROP WEIGHT", "setting": "600 MG/HA + SWIFT 1 % V/V", "value": 0.89, "unit": "t/ha"}, {"measurement": "MORPHINE", "setting": "600 MG/HA + SWIFT 1 % V/V", "value": 20.74, "unit": "kg/ha"}, {"measurement": "SEED", "setting": "600 MG/HA + SWIFT 1 % V/V", "value": 118, "unit": "kg/ha"}, {"measurement": "STRAW", "setting": "600 MG/HA + SWIFT 1 % V/V", "value": 774, "unit": "kg/ha"}, {"measurement": "STRAW MORPHINE %", "setting": "600 MG/HA + SWIFT 1 % V/V", "value": 2.68, "unit": "%"}, {"measurement": "PLANT HEIGHT", "setting": "600 MG/HA + SWIFT 1 % V/V", "value": 80, "unit": "cm"}]}
{"smiles": "COC(=O)c1sccc1S(=O)(=O)NC(=O)Nc1nc(C)nc(OC)n1", "note": "[Compound 4, thifensulfuron-methyl]", "values": [{"measurement": "CAPSULE/SEED RATIO", "setting": "[1]", "value": 3.299}, {"measurement": "CROP WEIGHT", "setting": "[1]", "value": 0.22, "unit": "t/ha"}, {"measurement": "MORPHINE", "setting": "[1]", "value": 4.10, "unit": "kg/ha"}, {"measurement": "SEED", "setting": "[1]", "value": 39, "unit": "kg/ha"}, {"measurement": "STRAW", "setting": "[1]", "value": 184, "unit": "kg/ha"}, {"measurement": "STRAW MORPHINE %", "setting": "[1]", "value": 2.23, "unit": "%"}, {"measurement": "PLANT HEIGHT", "setting": "[1]", "value": 65, "unit": "cm"}, {"measurement": "CAPSULE/SEED RATIO", "setting": "[2]", "value": 0}, {"measurement": "CROP WEIGHT", "setting": "[2]", "value": 0, "unit": "t/ha"}, {"measurement": "MORPHINE", "setting": "[2]", "value": 0, "unit": "kg/ha"}, {"measurement": "SEED", "setting": "[2]", "value": 0, "unit": "kg/ha"}, {"measurement": "STRAW", "setting": "[2]", "value": 0, "unit": "kg/ha"}, {"measurement": "STRAW MORPHINE %", "setting": "[2]", "value": 0, "unit": "%"}, {"measurement": "PLANT HEIGHT", "setting": "[2]", "value": 0, "unit": "cm"}, {"measurement": "CAPSULE/SEED RATIO", "setting": "[3]", "value": 5.209}, {"measurement": "CROP WEIGHT", "setting": "[3]", "value": 0.87, "unit": "t/ha"}, {"measurement": "MORPHINE", "setting": "[3]", "value": 16.19, "unit": "kg/ha"}, {"measurement": "SEED", "setting": "[3]", "value": 103, "unit": "kg/ha"}, {"measurement": "STRAW", "setting": "[3]", "value": 771, "unit": "kg/ha"}, {"measurement": "STRAW MORPHINE %", "setting": "[3]", "value": 2.10, "unit": "%"}, {"measurement": "PLANT HEIGHT", "setting": "[3]", "value": 78, "unit": "cm"}]}
